Test results taken from patent US20240043928A1, “BIOMARKERS FOR MYELODYSPLASTIC SYNDROME (MDS) AND METHODS OF USING THE SAME” (Eisai R&D Management Co., Ltd., priority 2020, published 2024).
Read-outs that look alike come from different tables or passages of the source.

Legend:
[1] = Phase I study NCT02841540: plasma pharmacokinetics; assay type: in vivo, human; settings: for Cmax / half-life / AUC(0-t) / Tmax: human, plasma; for Cmax / half-life / AUC(0-t): geometric mean (CV %); for AUC(0-t): read-out: AUC0-24; for Tmax: median
Procedure: (§1) Plasma samples for PK analyses were collected during Cycle 1 on Day 1 and Day 4 (pre-dose and 0.5, 1, 2, 4, 6, 8, 10, and 24 hours post-dose), and pre-dose and 4 hours post-dose on Cycle 1 on Day 15. PK analyses were conducted using Phoenix® VVinNonlin. For pharmacodynamic and biomarker analyses, peripheral blood samples were collected into PAXgene® Blood RNA Tubes (BD Biosciences, San Jose, California) at Cycle 1 Day 1 (pre-dose and 1, 2, 4, 10 and 24 hours post-dose) for all patients. RNA was extracted using Maxwell® simplyRNA Blood Kit (Promega, Madison, Wisconsin). Target engagement (i.e., splicing modulation) was measured by assessing relative expression of representative pre- and mature-mRNA or aberrant and canonical transcripts at post-dose time points comparing to pre-dose, using a customized Nanostring nCounter gene expression panel (NanoString Technologies, Seattle, Washington). For splicing mutation analysis, peripheral blood was collected into PAXgene® Blood DNA Tubes (BD Biosciences, San Jose, California). Baseline splicing mutations were identified using the Focus:Myeloid™ Next Generation Sequencing (NGS) panel determined centrally by Cancer Genetics Inc. (Rutherford, NJ). Biomarker analyses of pretreatment samples were conducted using one-way ANOVA and MedCalc® software. Receiver-Operating-Characteristics (ROC) curves were performed according to the methodology described by Hanley and McNeil (Radiology. 1982;143(1):29-36; see also Zweig and Campbell, Clin Chem. 1993;39(4):561-577).

[2] = tested on: patients with myelodysplastic syndrome (MDS), chronic myelomonocytic leukemia (CMML), or acute myeloid leukemia (AML); assay: Phase I study NCT02841540: clinical response and transfusion independence; assay type: in vivo, human
Procedure: Clinical responses were assessed using the 2006 International Working Group (IWG) response criteria for MDS (Cheson et al. Blood. 2006;108:419-425), the IWG 2003 criteria for AML, and the 2015 international consortium proposal of uniform response criteria for myelodysplastic/myeloproliferative neoplasms (MDS/MPN) and CMML (Savona et al. Blood. 2015;125(12):1857-1865). Peripheral blood sampling, bone marrow aspirates, bone marrow biopsies, marrow cytogenetics, and cellular composition by flow cytometry were performed at the time of screening, and after Cycles 1, 2, and 4. Beyond Cycle 4, bone marrow aspirates were performed as clinically indicated based on changes in peripheral blood count, or as needed to establish either complete response or disease progression. An independent central confirmation and interpretation was performed for disease assessments.

[3] = tested on: TMEM14C AJ/CJ ratio and other splicing markers; assay: Phase I study NCT02841540: pharmacodynamics, splicing markers in peripheral blood (Nanostring nCounter panel); assay type: in vivo, human
Procedure: as §1

[4] = Non-human primate toxicity; assay type: in vivo
[5] = tested on: human acute myeloid leukemia (AML) cell lines, including mutant U2AF1, SRSF2, and SF3B1 cells; settings: panel of human AML cell lines incl. mutant U2AF1, SRSF2, SF3B1 cells; cited from earlier work
[6] = tested on: xenograft models of leukemia expressing mutant SF3B1; settings: oral administration; cited from earlier work
[7] = patient: CMML, IPSS Lower, starting dose 7 mg
[8] = patient: MDS (baseline Hb 9.1 g/dL), IPSS Lower, starting dose 5 mg
[9] = patient: MDS, IPSS Higher, starting dose 2 mg
[10] = patient: MDS, IPSS Higher, starting dose 7 mg
[11] = patient: MDS, IPSS Lower, donor one, starting dose 7 mg
[12] = patient: MDS, IPSS Lower, starting dose 2 mg (7 mg during last two RBC TI periods)
[13] = patient: MDS, IPSS Lower, starting dose 3.5 mg
[14] = patient: MDS/MPN (RARS-T), IPSS Lower, starting dose 2 mg
[15] = patients who experienced RBC TI

In the case of `C/C(=C\C=C\[C@@H](C)c1ccccn1)[C@H]1OC(=O)C[C@H](O)CC[C@@](C)(O)[C@@H](OC(=O)N2CCN(C)CC2)/C=C/[C@@H]1C` [Compound 1, (2S,3S,4E,6S,7R,10R)-7,10-dihydroxy-3,7-dimethyl-12-oxo-2-[(2E,4E,6R)-6-(pyridine-2-yl)hepta-2,4-dien-2-yl]oxacyclododec-4-en-6-yl-4-methylpiperazine-1-carboxylate], the Cmax ([1]; oral, 1.0 mg once daily) was 0.835 ng/mL, the half-life ([1]; oral, 1.0 mg once daily) was 5.1 h and the AUC(0-t) ([1]; oral, 1.0 mg once daily) was 4.89 ng·h/mL. It also gave a Tmax ([1]; oral, 1.0 mg once daily) of 2 h, a Cmax ([1]; oral, 2.0 mg once daily) of 1.09 ng/mL and a half-life ([1]; oral, 2.0 mg once daily) of 5.4 h. For the same compound, the AUC(0-t) ([1]; oral, 2.0 mg once daily) was 8.39 ng·h/mL, the Tmax ([1]; oral, 2.0 mg once daily) was 2 h and the Cmax ([1]; oral, 3.5 mg once daily) was 2.78 ng/mL. For the same compound, the half-life ([1]; oral, 3.5 mg once daily) was 5.4 h, the AUC(0-t) ([1]; oral, 3.5 mg once daily) was 15.6 ng·h/mL and the Tmax ([1]; oral, 3.5 mg once daily) was 1.5 h. The Cmax ([1]; oral, 5.0 mg once daily) was 3.94 ng/mL, the half-life ([1]; oral, 5.0 mg once daily) was 5.8 h and the AUC(0-t) ([1]; oral, 5.0 mg once daily) was 24.5 ng·h/mL. It also gave a Tmax ([1]; oral, 5.0 mg once daily) of 1 h, a Cmax ([1]; oral, 7.0 mg once daily) of 9.61 ng/mL and a half-life ([1]; oral, 7.0 mg once daily) of 5.3 h. For the same compound, the AUC(0-t) ([1]; oral, 7.0 mg once daily) was 39.4 ng·h/mL, the Tmax ([1]; oral, 7.0 mg once daily) was 1 h and the Cmax ([1]; oral, 10 mg once daily) was 12.7 ng/mL. The half-life ([1]; oral, 10 mg once daily) was 5.5 h, the AUC(0-t) ([1]; oral, 10 mg once daily) was 51 ng·h/mL and the Tmax ([1]; oral, 10 mg once daily) was 1 h. It also gave a Cmax ([1]; oral, 12 mg once daily) of 12.2 ng/mL, a half-life ([1]; oral, 12 mg once daily) of 5.4 h and an AUC(0-t) ([1]; oral, 12 mg once daily) of 64.7 ng·h/mL. For the same compound, the Tmax ([1]; oral, 12 mg once daily) was 2 h, the Cmax ([1]; oral, 14 mg once daily) was 25.6 ng/mL and the half-life ([1]; oral, 14 mg once daily) was 5.1 h. It also gave an AUC(0-t) ([1]; oral, 14 mg once daily) of 108 ng·h/mL, a Tmax ([1]; oral, 14 mg once daily) of 1 h and a Cmax ([1]; oral, 40 mg once daily) of 73.3 ng/mL. It also gave a half-life ([1]; oral, 40 mg once daily) of 4.5 h, an AUC(0-t) ([1]; oral, 40 mg once daily) of 265 ng·h/mL and a Tmax ([1]; oral, 40 mg once daily) of 0.5 h. The Cmax ([1]; 20 mg once daily) was 33.6 ng/mL, the half-life ([1]; 20 mg once daily) was 5.1 h and the AUC(0-t) ([1]; 20 mg once daily) was 142 ng·h/mL. It also gave a Tmax ([1]; 20 mg once daily) of 0.75 h, a Cmax ([1]; 30 mg once daily) of 34.4 ng/mL and a half-life ([1]; 30 mg once daily) of 5.3 h. For the same compound, the AUC(0-t) ([1]; 30 mg once daily) was 159 ng·h/mL, the Tmax ([1]; 30 mg once daily) was 1.25 h and the absorption ([1]; preliminary PK analysis) was “rapidly absorbed”. The “dose dependence of plasma exposure” value ([1]; preliminary PK analysis) was “dose-proportional increase in plasma exposure”, the “inter-individual variability on clearance/bioavailability” value ([1]; preliminary population PK modeling) was “about 34%” and the “RBC TI periods” value ([2]; 4 patients with SF3B1 mutations and a diagnosis of AML) was “No RBC TI periods were observed”. The “patients who experienced events of RBC TI” value ([2]; 5 of the 7 MDS patients with pre-treatment TMEM14C AJ/CJ >4.01) was 71%, the “patients who experienced RBC TI events” value ([2]; 5 of the 20 patients with missense SF3B1 mutations at study entry) was 25% and the “patients with intervals of >56 days without RBC transfusions” value ([2]; 9 of 62 patients transfusion dependent at study entry, as of April 2020, all Schedule I) was 15%. The “RBC TI rate” value ([2]; CMML (1 subject)) was 25%, the “RBC TI rate” value ([2]; MDS (8 cases)) was 19% and the “complete or partial responses meeting 2006 IWG criteria” value ([2]; all patients) was “No complete or partial responses”. For the same compound, the “Median duration of RBC TI” value ([2]; human, in vivo) was 13 weeks, the “Median time to onset of RBC TI” value ([2]; human, in vivo) was 15 weeks and the “additional RBC TI cases, transfusion dependence prior to study entry not verified” value ([2]; human, in vivo) was “Two additional patients (1 AML, 1 MDS) experienced RBC TI periods of >56 days”. For the same compound, the “clinical benefit (platelet response) (MDS/MPN criteria)” value ([2]; in the 4 subjects with CMML) was 1, the “complete cytogenetic remission (MDS/MPN criteria)” value ([2]; in the 4 subjects with CMML) was 1 and the “patients who experienced RBC TI at the 7 mg dose” value ([2]; of the patients with RBC TI) was “Four of the 9”. The “patients whose first RBC TI initiated in weeks 1-24 of the study” value ([2]; of the patients with RBC TI) was 8 of the 9, the “platelet transfusion independence without RBC TI” value ([2]; one higher risk MDS patient, 7 mg, Schedule II) was 22 week and the “Longest RBC TI Period” value [2, 7] was 66 days. For the same compound, the “Number of RBC TI Periods” value [2, 7] was 1, the “Time to First RBC TI” value [2, 7] was 4 days and the “Longest RBC TI Period” value [2, 8] was 87 days. The “Number of RBC TI Periods” value [2, 8] was 1, the “Time to First RBC TI” value [2, 8] was 398 days and the “Longest RBC TI Period” value [2, 9] was 121 days. For the same compound, the “Number of RBC TI Periods” value [2, 9] was 1, the “Time to First RBC TI” value [2, 9] was 126 days and the “Longest RBC TI Period” value [2, 10] was 107 days. For the same compound, the “Number of RBC TI Periods” value [2, 10] was 1, the “Time to First RBC TI” value [2, 10] was 104 days and the “Longest RBC TI Period” value [2, 11] was 98 days. The “Number of RBC TI Periods” value [2, 11] was 4, the “Time to First RBC TI” value [2, 11] was 73 days and the “Longest RBC TI Period” value [2, 12] was 85 days. For the same compound, the “Number of RBC TI Periods” value [2, 12] was 5, the “Time to First RBC TI” value [2, 12] was 88 days and the “Longest RBC TI Period” value [2, 13] was 98 days. For the same compound, the “Number of RBC TI Periods” value [2, 13] was 2, the “Time to First RBC TI” value [2, 13] was 101 days and the “Longest RBC TI Period” value [2, 14] was 56 days. The “Number of RBC TI Periods” value [2, 14] was 1, the “Time to First RBC TI” value [2, 14] was 111 days and the “period of platelet transfusion independence” value ([2]; the CMML patient with RBC TI) was 21 week. For the same compound, the “modulation of splicing markers post-dosing” value ([3]; PBMC samples, NanoString probes, 61 splicing markers) was “general modulation of splicing markers post-dosing was observed”, the “modulation of relative expression of splicing markers” value ([3]; heat map, FIG. 5) was “dose-dependent modulation” and the “change of the TMEM14C AJ/CJ ratio with dosing” value [3, 15] was “Downregulation”. For the same compound, the “time of nadir of the TMEM14C AJ/CJ ratio” value [3, 15] was 2 to 10 h, the “dose-limiting toxicity (DLT)” value [4] was “gastrointestinal distress and colitis” and the growth inhibitory activity [5] was “shows growth inhibitory activity”. The “in vivo antitumor activity” value [6] was “induces in vivo antitumor activity”.
